From paper PMC7961048, “Hierarchized phosphotarget binding by the seven human 14-3-3 isoforms” (Nature Communications, 2021)
Starred links: 1 amine or outer side, 2 acyl side, 3 side chain; linkers in the order of their positions; H or OH if unused. Non-standard residues stand in square brackets, D forms with d. Residues, ends and D or L forms follow the SMILES beside them. *: point of attachment. X1 = O=C(CCCC[C@@H]1SC[C@@H]2NC(=O)N[C@@H]21)NCCCOCCOCCOCCCN*; pT = C[C@@H](OP(=O)(O)O)[C@H](N)C(=O)O; Suc = O=C(CCC(=O)[*:2])[*:1]

Experiments:
Type in all cases: binding
[1] = molecular target: seven human 14-3-3 isoforms; assay: Affinities averaged or compared across the 14-3-3 family (ΔΔGav, KD ratios, affinity maps); details: for KD ratios, compared to LRRK2 pS910/pS935, 14-3-3β / KD ratios, compared to LRRK2 pS910/pS935, 14-3-3γ / KD ratios, compared to LRRK2 pS910/pS935, 14-3-3ζ / KD ratios, compared to LRRK2 pS910/pS935, 14-3-3η / KD ratios, compared to LRRK2 pS910/pS935, 14-3-3τ / KD ratios, compared to LRRK2 pS910/pS935, average / KD ratios, compared to LRRK2 pS910/pS935, 14-3-3ε / KD ratios, compared to LRRK2 pS910/pS935, 14-3-3σ: Figure 4 panel b; for KD ratios, compared to LRRK2 pS910/pS935, average: average over the isoforms; for KD ratios, compared to 14-3-3γ, 14-3-3β / KD ratios, compared to 14-3-3γ, 14-3-3γ / KD ratios, compared to 14-3-3γ, 14-3-3ζ / KD ratios, compared to 14-3-3γ, 14-3-3η / KD ratios, compared to 14-3-3γ, 14-3-3τ / KD ratios, compared to 14-3-3γ, 14-3-3ε / KD ratios, compared to 14-3-3γ, 14-3-3σ: Figure 4 panel c; for ΔΔGav (average 14-3-3 binding free energy difference) relative to p35E6: averaged over 14-3-3 isoforms, 295 K; for KD ratio relative to p35E6: corresponds to ΔΔGav averaged over 14-3-3 isoforms; for binding to 14-3-3 proteins: competitive FP, seven MBP-fused full-length 14-3-3 isoforms, result in words
Description: Former studies have measured the binding of the seven human 14-3-3 isoforms to unrelated phospho-motifs derived from Cystic Fibrosis Transmembrane Conductance Regulator (CFTR), Leucine-Rich Repeat Kinase 2 (LRRK2), Potassium channel subfamily K members (TASK1/3), C-Raf, the p65 subunit of the NF-κB transcription factor, and from Ubiquitin carboxyl-terminal hydrolase 8 (USP8), representing a wide variety of different 14-3-3-binding motifs, including C-terminal, internal, monovalent, or divalent motifs[40],[44]–[48].
(gray background). The color scale is either based on affinity values or on KD ratios. √ denotes affinities weaker than the limit of quantitation of the experimental assays. b Same map as in a, normalized to the strongest 14-3-3-binding motif. […] Source data are provided as a Source Data file.
All binding data and the obtained fits are provided as Supplementary Data File 1.

14-3-3ζ = molecular target: T1, 14-3-3ζ (Homo sapiens, UniProt P63104); assay: biochemical
T1 construct: Plasmids containing the cDNAs of the full-length 14-3-3 isoforms ε, γ, and ζ were received; made in house; host or cells: E. coli BL21(DE3)
T1 sequence (P63104 1-245): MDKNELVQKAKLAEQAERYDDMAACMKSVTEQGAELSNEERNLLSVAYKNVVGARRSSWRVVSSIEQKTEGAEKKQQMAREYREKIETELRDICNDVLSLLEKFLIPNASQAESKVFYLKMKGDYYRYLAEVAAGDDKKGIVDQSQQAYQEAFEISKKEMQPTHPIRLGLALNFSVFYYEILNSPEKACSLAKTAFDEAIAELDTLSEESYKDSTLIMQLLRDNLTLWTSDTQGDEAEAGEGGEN
Method: (§1) The seven full-length human 14-3-3 isoforms, produced as fusions to a maltose-binding protein (MBP), were analyzed for their interaction with four phospho-PBMs from E6 proteins of HPV types 16, 18, 33, and 35 belonging to subgroups 1 and 2 (as defined in Supplementary Fig. 1). For comparison, we also measured two non-viral phospho-PBMs originating from protein kinase RSK1[28]. We used a competitive fluorescence polarization (FP) assay that measures the displacement of a fluorescent tracer phosphopeptide (here, derived from the HSPB6 protein) bound beforehand to 14-3-3, by an increasing amount of the peptide of interest.
(§2) For affinity measurements, full-length human 14-3-3 constructs with an N-terminal MBP fusion were used. Plasmids containing the cDNAs of the full-length 14-3-3 isoforms ε, γ, and ζ were received from Prof. Lawrence Banks. cDNAs encoding other full-length 14-3-3 isoforms β, τ, η, and σ were obtained as codon-optimized for E. coli expression synthetic genes from IDT Technologies (Coralville, Iowa, USA). All 14-3-3 isoforms were fused via a three-alanine linker to the C terminus of a mutant MBP carrying the following amino acid substitutions facilitating crystallization: D83A, K84A, K240A, E360A, K363A, and D364A[62]. All resulting clones were verified by sequencing. The MBP-fused proteins were expressed in E. coli BL21(DE3) with IPTG induction. Proteins were affinity purified on an amylose column and were further purified by ion-exchange chromatography (HiTrap Q HP, GE Healthcare). Unfused 14-3-3 isoforms devoid of the flexible C-terminal tails (14-3-3βΔC, 14-3-3τΔC 14-3-3εΔC) were expressed using IPTG induction and purified by subtractive IMAC and SEC[40]. Protein concentrations were determined by UV spectroscopy. The samples were supplemented with glycerol and TCEP before aliquoting and freezing in liquid nitrogen.
(§3) Unless otherwise stated, all phosphopeptide-binding measurements were performed using full-length 14-3-3 proteins fused to the C terminus of MBP, favoring optimal solubility and a standardized parallel purification scheme.
(§4) FP was measured with a PHERAstar (BMG Labtech, Offenburg, Germany) microplate reader by using 485 ± 20 and 528 ± 20 nm band-pass filters (for excitation and emission, respectively). In direct FP measurements, a dilution series of the 14-3-3 protein was prepared in 96-well plates (96-well skirted PCR plate, 4ti-0740, 4titude, Wotton, UK) in a 20 mM HEPES pH 7.5 buffer containing 150 mM NaCl, 0.5 mM TCEP, 0.01% Tween 20, 50 nM fluorescently labeled fpB6 peptide, and 100 μM FSC, if indicated. The volume of the dilution series was 40 μl, which was later divided into three technical replicates of 10 μl upon transferring to 384-well micro-plates (low binding microplate, 384 well, E18063G5, Greiner Bio-One, Kremsmünster, Austria). In total, polarization of the probe was measured at eight different protein concentrations (whereas one contained no protein and corresponded to the free peptide). In competitive FP measurements, the same buffer was supplemented with the protein to achieve a complex formation of 60–80%, based on the direct titration. Then, this mixture was used for creating a dilution series of the unlabeled competitor (i.e., the studied peptides) and the measurement was carried out identically as in the direct experiment.
(§5) All FP experiments were done in triplicates. Analysis of FP experiments were carried out using ProFit, an in-house developed, Python-based fitting program. ProFit utilizes a Monte Carlo approach to take into account experimental variability. It generates hundreds of simulated datasets, based on the experimental data variance and fits direct and competitive measurements in pairs.

14-3-3ε = molecular target: T2, 14-3-3ε (Homo sapiens, UniProt P62258); assay: biochemical
T2 construct: Plasmids containing the cDNAs of the full-length 14-3-3 isoforms ε, γ, and ζ were received; made in house; host or cells: E. coli BL21(DE3)
T2 sequence (P62258 1-255): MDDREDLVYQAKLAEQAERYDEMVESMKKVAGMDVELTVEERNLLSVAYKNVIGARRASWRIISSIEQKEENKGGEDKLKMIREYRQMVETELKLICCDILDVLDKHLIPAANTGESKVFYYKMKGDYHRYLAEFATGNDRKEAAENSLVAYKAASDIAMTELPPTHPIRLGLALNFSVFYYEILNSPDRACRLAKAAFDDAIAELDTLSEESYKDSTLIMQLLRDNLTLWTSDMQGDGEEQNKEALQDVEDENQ
Method: as §1, §2, §3, §4, §5

Row | Compound | KD ratios, compared to LRRK2 pS910/pS935, 14-3-3β [1] | KD ratios, compared to LRRK2 pS910/pS935, 14-3-3γ [1] | KD ratios, compared to LRRK2 pS910/pS935, 14-3-3ζ [1] | KD ratios, compared to LRRK2 pS910/pS935, 14-3-3η [1] | KD ratios, compared to LRRK2 pS910/pS935, 14-3-3τ [1] | KD ratios, compared to LRRK2 pS910/pS935, average [1] | KD ratios, compared to 14-3-3γ, 14-3-3β [1] | KD ratios, compared to 14-3-3γ, 14-3-3γ [1] | KD ratios, compared to 14-3-3γ, 14-3-3ζ [1] | KD ratios, compared to 14-3-3γ, 14-3-3η [1] | KD ratios, compared to 14-3-3γ, 14-3-3τ [1] | ΔΔGav (average 14-3-3 binding free energy difference) relative to p35E6 [1] | KD ratio relative to p35E6 [1] | Kd (14-3-3ζ) | KD ratios, compared to LRRK2 pS910/pS935, 14-3-3ε [1] | KD ratios, compared to LRRK2 pS910/pS935, 14-3-3σ [1] | KD ratios, compared to 14-3-3γ, 14-3-3ε [1] | KD ratios, compared to 14-3-3γ, 14-3-3σ [1] | binding to 14-3-3 proteins [1] | Kd (14-3-3ε) | further results
1 | CC(C)[C@H](NC(=O)[C@H](CCC(=O)O)NC(=O)[C@@H](NC(=O)[C@H](CCC(=O)O)NC(=O)[C@H](CCCNC(=N)N)NC(=O)[C@H](CCCNC(=N)N)NC(=O)[C@H](CCCNC(=N)N)NC(=O)[C@@H]1CCCN1C(=O)[C@H](CCCCN)NC(=O)[C@H](CO)NC(=O)CCC(=O)NCCCOCCOCCOCCCNC(=O)CCCC[C@@H]1SC[C@@H]2NC(=O)N[C@@H]21)[C@@H](C)OP(=O)(O)O)C(=O)O [pHPV35E6T-6R] ({X1-Suc}-SKPRRRE[pT]EV-OH) | 8483 | 22250 | 28958 | 17708 | 20421 | 20000 | 2.51 | 1.00 | 1.95 | 1.19 | 2.72 | –1.1 ± 0.5 kJ/mol | 1.5 fold | 139 ± 21 µM | – | – | – | – | – | – | –
2 | CC(C)C[C@H](NC(=O)[C@H](CCCNC(=N)N)NC(=O)CCC(=O)NCCCOCCOCCOCCCNC(=O)CCCC[C@@H]1SC[C@@H]2NC(=O)N[C@@H]21)C(=O)N[C@@H](CCC(N)=O)C(=O)N[C@@H](CCCNC(=N)N)C(=O)N[C@@H](CCCNC(=N)N)C(=O)N[C@@H](CCCNC(=N)N)C(=O)N[C@@H](CCC(=O)O)C(=O)N[C@H](C(=O)N[C@@H](CCC(N)=O)C(=O)N[C@H](C(=O)O)C(C)C)[C@@H](C)OP(=O)(O)O [pHPV18E6] | 2000.00 | 3437.50 | 4666.67 | 4916.67 | 3978.95 | 4200.00 | 3.84 | 1.00 | 2.04 | 2.15 | 3.44 | – | – | 22.4 ± 1.3 µM | 8145.16 | 2293.73 | 9.18 | 12.64 | detectably bound | – | –
3 | CC(C)[C@H](NC(=O)[C@H](CCC(=O)O)NC(=O)[C@@H](NC(=O)[C@H](CCC(=O)O)NC(=O)[C@H](CCCNC(=N)N)NC(=O)[C@H](CCCNC(=N)N)NC(=O)[C@@H](NC(=O)[C@@H]1CCCN1C(=O)[C@H](CCCCN)NC(=O)[C@H](CO)NC(=O)CCC(=O)NCCCOCCOCCOCCCNC(=O)CCCC[C@@H]1SC[C@@H]2NC(=O)N[C@@H]21)[C@@H](C)O)[C@@H](C)OP(=O)(O)O)C(=O)O [pHPV35E6] ({X1-Suc}-SKPTRRE[pT]EV-OH) | – | – | – | – | – | – | – | – | – | – | – | – | – | – | – | – | – | – | detectably bound | > 300 µM | Binding affinities (KD) of various 14-3-3-binding motifs, 14-3-3ε (14-3-3ε): √
4 | CC(C)C[C@H](NC(=O)[C@H](C)NC(=O)[C@@H](NC(=O)[C@H](CCC(=O)O)NC(=O)[C@H](CCCNC(=N)N)NC(=O)[C@H](CCCNC(=N)N)NC(=O)[C@H](CCCNC(=N)N)NC(=O)[C@H](CO)NC(=O)[C@H](CCCNC(=N)N)NC(=O)[C@H](CO)NC(=O)CCC(=O)NCCCOCCOCCOCCCNC(=O)CCCC[C@@H]1SC[C@@H]2NC(=O)N[C@@H]21)[C@@H](C)OP(=O)(O)O)C(=O)O [pHPV33E6] ({X1-Suc}-SRSRRRE[pT]AL-OH) | 191.94 | 293.75 | 566.67 | 412.50 | 370.53 | 400.00 | 4.31 | 1.00 | 2.89 | 2.11 | 3.74 | –10.9 ± 0.7 kJ/mol | ~100 fold | – | 830.65 | 111.72 | 10.96 | 7.20 | detectably bound | 10.3 µM | –
